# Values joined by “and” are separate entries in the source; they are usually repeats but may differ in a detail not shown here. Identical values can stand only once.
# Tests used:
# Experiment in all cases: SelectScreen kinase panel
# Assay type in all cases: biochemical
# LRRK2 = target: T1, LRRK2 (Homo sapiens, UniProt Q5S007); conditions: NIK SMI1 1 µM; ATP Km app
# T1 construct: purchased Invitrogen / ThermoFisher SelectScreen
# Method in brief: (§1)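 Using one of three vendor formats (Z′-LYTE, Adapta, LanthaScreen), Invitrogen measured compound effects across its SelectScreen kinase collection. Average inhibition percentages are listed.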
# GRK6 = target: T2, GRK6 (Homo sapiens, UniProt P43250)
# T2 construct: purchased Invitrogen / ThermoFisher SelectScreen
# Method in brief: as §1
# CaMKI_delta = target: T3, CaMKI_delta (Homo sapiens, UniProt Q8IU85)
# T3 construct: purchased Invitrogen / ThermoFisher SelectScreen
# Method in brief: as §1
# DYRK1A = target: T4, DYRK1A (Homo sapiens, UniProt Q13627)
# T4 construct: purchased Invitrogen / ThermoFisher SelectScreen
# Method in brief: as §1
# SGK2 = target: T5, SGK2 (Homo sapiens, UniProt Q9HBY8)
# T5 construct: purchased Invitrogen / ThermoFisher SelectScreen
# Method in brief: as §1
# IKK_alpha = target: T6, IKK_alpha (Homo sapiens, UniProt O15111)
# T6 construct: purchased Invitrogen / ThermoFisher SelectScreen
# Method in brief: as §1
# CamKIV = target: T7, CamKIV (Homo sapiens, UniProt Q16566)
# T7 construct: purchased Invitrogen / ThermoFisher SelectScreen
# Method in brief: as §1
# PAK3 = target: T8, PAK3 (Homo sapiens, UniProt O75914)
# T8 construct: purchased Invitrogen / ThermoFisher SelectScreen
# Method in brief: as §1
# PDK1 = target: T9, PDK1 (Homo sapiens, UniProt O15530)
# T9 construct: purchased Invitrogen / ThermoFisher SelectScreen
# Method in brief: as §1
# Rse = target: T10, Rse (Homo sapiens, UniProt Q06418)
# T10 construct: purchased Invitrogen / ThermoFisher SelectScreen
# Method in brief: as §1
# HIPK2 = target: T11, HIPK2 (Homo sapiens, UniProt Q9H2X6)
# T11 construct: purchased Invitrogen / ThermoFisher SelectScreen
# Method in brief: as §1
# JAK2 = target: T12, JAK2 (Homo sapiens, UniProt O60674)
# T12 construct: purchased Invitrogen / ThermoFisher SelectScreen
# Method in brief: as §1
# PrKX = target: T13, PrKX (Homo sapiens, UniProt P51817)
# T13 construct: purchased Invitrogen / ThermoFisher SelectScreen
# Method in brief: as §1
# P38_gamma = target: T14, P38_gamma (Homo sapiens, UniProt P53778)
# T14 construct: purchased Invitrogen / ThermoFisher SelectScreen
# Method in brief: as §1
# SPHK1 = target: T15, SPHK1 (Homo sapiens, UniProt Q9NYA1)
# T15 construct: purchased Invitrogen / ThermoFisher SelectScreen
# Method in brief: as §1
# p38_alpha = target: T16, p38_alpha (Homo sapiens, UniProt Q16539)
# T16 construct: purchased Invitrogen / ThermoFisher SelectScreen
# Method in brief: as §1
# Blk = target: T17, Blk (Homo sapiens, UniProt P51451)
# T17 construct: purchased Invitrogen / ThermoFisher SelectScreen
# Method in brief: as §1
# TBK1 = target: T18, TBK1 (Homo sapiens, UniProt Q9UHD2)
# T18 construct: purchased Invitrogen / ThermoFisher SelectScreen
# Method in brief: as §1
# eEF-2K = target: T19, eEF-2K (Homo sapiens, UniProt O00418)
# T19 construct: purchased Invitrogen / ThermoFisher SelectScreen
# Method in brief: as §1
# EGFR = target: T20, EGFR (Homo sapiens, UniProt P00533)
# T20 construct: purchased Invitrogen / ThermoFisher SelectScreen
# Method in brief: as §1
# ErbB2 = target: T21, ErbB2 (Homo sapiens, UniProt P04626)
# T21 construct: purchased Invitrogen / ThermoFisher SelectScreen
# Method in brief: as §1
# MARK3 = target: T22, MARK3 (Homo sapiens, UniProt P27448)
# T22 construct: purchased Invitrogen / ThermoFisher SelectScreen
# Method in brief: as §1
# PKA = target: T23, PKA (Homo sapiens, UniProt P17612)
# T23 construct: purchased Invitrogen / ThermoFisher SelectScreen
# Method in brief: as §1
# CSF1R = target: T24, CSF1R (Homo sapiens, UniProt P07333)
# T24 construct: purchased Invitrogen / ThermoFisher SelectScreen
# Method in brief: as §1
# IRAK4 = target: T25, IRAK4 (Homo sapiens, UniProt Q9NWZ3)
# T25 construct: purchased Invitrogen / ThermoFisher SelectScreen
# Method in brief: as §1
# Fes = target: T26, Fes (Homo sapiens, UniProt P07332)
# T26 construct: purchased Invitrogen / ThermoFisher SelectScreen
# Method in brief: as §1
# CLK3 = target: T27, CLK3 (Homo sapiens, UniProt P49761)
# T27 construct: purchased Invitrogen / ThermoFisher SelectScreen
# Method in brief: as §1
# MRCK_alpha = target: T28, MRCK_alpha (Homo sapiens, UniProt Q5VT25)
# T28 construct: purchased Invitrogen / ThermoFisher SelectScreen
# Method in brief: as §1
# NEK4 = target: T29, NEK4 (Homo sapiens, UniProt P51957)
# T29 construct: purchased Invitrogen / ThermoFisher SelectScreen
# Method in brief: as §1
# CK1_gamma2 = target: T30, CK1_gamma2 (Homo sapiens, UniProt P78368)
# T30 construct: purchased Invitrogen / ThermoFisher SelectScreen
# Method in brief: as §1
# HIPK4 = target: T31, HIPK4 (Homo sapiens, UniProt Q8NE63)
# T31 construct: purchased Invitrogen / ThermoFisher SelectScreen
# Method in brief: as §1
# KHS1 = target: T32, KHS1 (Homo sapiens, UniProt Q9Y4K4); conditions: NIK SMI1 1 µM; ATP Km app
# T32 construct: purchased Invitrogen / ThermoFisher SelectScreen
# Method in brief: as §1
# T1 sequence (Q5S007 whole entry): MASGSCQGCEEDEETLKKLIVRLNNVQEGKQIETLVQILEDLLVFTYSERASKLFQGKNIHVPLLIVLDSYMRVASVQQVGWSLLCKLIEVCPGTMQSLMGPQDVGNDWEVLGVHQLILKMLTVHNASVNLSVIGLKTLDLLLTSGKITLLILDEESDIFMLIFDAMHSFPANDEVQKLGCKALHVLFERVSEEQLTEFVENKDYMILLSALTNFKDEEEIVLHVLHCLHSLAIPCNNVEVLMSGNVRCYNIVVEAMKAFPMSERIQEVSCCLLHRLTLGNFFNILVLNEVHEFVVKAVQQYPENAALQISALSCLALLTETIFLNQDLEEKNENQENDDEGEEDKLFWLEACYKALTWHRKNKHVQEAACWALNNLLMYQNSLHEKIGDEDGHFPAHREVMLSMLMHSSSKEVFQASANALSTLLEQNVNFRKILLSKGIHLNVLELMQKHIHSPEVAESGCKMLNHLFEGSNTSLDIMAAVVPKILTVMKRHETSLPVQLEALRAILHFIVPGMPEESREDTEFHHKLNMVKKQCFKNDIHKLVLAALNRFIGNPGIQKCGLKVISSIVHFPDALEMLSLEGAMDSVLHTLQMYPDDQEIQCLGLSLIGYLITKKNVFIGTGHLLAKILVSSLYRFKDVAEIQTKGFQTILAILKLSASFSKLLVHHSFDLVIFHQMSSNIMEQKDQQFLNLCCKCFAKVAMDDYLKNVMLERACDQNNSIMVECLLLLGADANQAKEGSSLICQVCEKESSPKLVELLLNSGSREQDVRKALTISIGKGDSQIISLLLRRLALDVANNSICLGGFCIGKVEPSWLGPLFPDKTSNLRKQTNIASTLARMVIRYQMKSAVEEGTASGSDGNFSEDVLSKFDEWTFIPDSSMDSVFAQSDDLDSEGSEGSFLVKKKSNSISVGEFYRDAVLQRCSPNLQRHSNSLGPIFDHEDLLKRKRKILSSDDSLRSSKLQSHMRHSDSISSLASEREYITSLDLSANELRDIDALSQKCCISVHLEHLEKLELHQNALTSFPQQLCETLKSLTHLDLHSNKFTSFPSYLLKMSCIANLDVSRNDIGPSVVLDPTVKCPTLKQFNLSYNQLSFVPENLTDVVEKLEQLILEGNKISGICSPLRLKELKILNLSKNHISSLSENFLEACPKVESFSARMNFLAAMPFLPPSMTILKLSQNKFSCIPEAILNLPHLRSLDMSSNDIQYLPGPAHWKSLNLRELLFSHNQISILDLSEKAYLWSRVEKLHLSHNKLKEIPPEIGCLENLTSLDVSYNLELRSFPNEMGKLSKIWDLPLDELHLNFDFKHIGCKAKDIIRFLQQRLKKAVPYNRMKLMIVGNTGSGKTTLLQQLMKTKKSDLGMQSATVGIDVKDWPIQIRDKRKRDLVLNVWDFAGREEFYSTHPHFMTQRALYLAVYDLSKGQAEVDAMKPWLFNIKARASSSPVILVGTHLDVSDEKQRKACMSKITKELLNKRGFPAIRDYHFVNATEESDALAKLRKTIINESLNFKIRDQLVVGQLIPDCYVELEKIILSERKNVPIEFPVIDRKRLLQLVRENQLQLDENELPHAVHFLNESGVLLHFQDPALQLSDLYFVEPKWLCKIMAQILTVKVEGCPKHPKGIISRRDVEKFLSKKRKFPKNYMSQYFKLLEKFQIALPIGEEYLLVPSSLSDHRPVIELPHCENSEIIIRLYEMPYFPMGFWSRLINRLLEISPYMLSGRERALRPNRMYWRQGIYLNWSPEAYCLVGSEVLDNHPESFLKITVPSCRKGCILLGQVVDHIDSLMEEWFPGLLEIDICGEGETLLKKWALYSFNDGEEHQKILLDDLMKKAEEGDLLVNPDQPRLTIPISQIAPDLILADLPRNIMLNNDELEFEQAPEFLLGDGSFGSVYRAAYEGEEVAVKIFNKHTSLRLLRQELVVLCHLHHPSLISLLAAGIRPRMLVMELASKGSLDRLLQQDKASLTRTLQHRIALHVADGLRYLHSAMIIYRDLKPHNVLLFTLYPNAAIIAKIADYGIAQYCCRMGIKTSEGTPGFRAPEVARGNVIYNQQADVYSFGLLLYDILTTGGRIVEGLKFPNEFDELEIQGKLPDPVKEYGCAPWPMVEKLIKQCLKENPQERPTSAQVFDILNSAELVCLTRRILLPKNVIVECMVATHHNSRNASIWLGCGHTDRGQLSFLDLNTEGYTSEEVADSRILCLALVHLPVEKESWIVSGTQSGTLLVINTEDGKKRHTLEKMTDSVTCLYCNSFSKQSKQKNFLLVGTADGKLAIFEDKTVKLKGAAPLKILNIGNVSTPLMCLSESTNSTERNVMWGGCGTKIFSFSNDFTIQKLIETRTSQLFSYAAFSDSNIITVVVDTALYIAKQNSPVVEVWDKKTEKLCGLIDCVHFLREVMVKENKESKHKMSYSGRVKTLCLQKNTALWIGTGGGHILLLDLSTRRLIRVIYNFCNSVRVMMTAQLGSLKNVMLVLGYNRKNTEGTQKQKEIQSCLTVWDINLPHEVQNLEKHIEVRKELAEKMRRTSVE
# T32 sequence (Q9Y4K4 whole entry): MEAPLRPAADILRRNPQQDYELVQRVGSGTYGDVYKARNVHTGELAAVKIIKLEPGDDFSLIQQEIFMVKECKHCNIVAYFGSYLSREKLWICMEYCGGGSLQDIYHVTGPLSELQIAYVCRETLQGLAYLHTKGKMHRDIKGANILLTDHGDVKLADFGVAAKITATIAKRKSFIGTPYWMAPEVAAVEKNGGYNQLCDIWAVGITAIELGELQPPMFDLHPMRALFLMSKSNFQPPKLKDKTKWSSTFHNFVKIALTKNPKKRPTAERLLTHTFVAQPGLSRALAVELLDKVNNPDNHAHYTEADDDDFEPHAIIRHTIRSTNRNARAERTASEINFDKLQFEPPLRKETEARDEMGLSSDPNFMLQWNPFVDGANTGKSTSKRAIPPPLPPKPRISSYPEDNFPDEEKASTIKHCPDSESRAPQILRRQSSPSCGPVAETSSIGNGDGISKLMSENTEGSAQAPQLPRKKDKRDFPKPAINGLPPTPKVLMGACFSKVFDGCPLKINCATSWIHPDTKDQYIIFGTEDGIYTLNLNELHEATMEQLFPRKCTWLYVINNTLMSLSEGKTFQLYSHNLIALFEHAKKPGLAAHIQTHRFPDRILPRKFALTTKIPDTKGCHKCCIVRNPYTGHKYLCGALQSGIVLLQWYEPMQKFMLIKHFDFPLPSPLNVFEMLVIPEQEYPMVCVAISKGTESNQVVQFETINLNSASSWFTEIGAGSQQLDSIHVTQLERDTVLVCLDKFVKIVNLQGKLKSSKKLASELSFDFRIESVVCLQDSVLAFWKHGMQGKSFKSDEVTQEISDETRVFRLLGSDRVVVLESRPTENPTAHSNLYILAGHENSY
# T18 sequence (Q9UHD2 whole entry): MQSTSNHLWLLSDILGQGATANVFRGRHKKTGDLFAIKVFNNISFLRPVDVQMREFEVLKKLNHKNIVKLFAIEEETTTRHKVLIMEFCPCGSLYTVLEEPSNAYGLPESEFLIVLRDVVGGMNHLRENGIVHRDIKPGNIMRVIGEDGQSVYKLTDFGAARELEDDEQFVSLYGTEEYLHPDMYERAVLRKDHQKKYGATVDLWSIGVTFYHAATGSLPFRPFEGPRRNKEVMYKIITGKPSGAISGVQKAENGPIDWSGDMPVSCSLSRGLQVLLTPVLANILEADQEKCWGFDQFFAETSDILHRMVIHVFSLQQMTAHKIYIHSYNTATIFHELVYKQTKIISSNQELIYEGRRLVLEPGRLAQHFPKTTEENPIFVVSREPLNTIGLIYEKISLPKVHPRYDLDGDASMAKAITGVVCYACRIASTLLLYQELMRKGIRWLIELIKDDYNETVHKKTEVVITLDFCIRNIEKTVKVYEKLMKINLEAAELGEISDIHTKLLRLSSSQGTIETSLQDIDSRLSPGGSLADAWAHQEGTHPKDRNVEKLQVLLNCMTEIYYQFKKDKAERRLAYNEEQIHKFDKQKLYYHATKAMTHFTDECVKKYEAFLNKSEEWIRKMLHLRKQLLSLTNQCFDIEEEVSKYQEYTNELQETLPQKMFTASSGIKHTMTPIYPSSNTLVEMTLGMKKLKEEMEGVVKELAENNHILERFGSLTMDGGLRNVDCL
# T9 sequence (O15530 whole entry): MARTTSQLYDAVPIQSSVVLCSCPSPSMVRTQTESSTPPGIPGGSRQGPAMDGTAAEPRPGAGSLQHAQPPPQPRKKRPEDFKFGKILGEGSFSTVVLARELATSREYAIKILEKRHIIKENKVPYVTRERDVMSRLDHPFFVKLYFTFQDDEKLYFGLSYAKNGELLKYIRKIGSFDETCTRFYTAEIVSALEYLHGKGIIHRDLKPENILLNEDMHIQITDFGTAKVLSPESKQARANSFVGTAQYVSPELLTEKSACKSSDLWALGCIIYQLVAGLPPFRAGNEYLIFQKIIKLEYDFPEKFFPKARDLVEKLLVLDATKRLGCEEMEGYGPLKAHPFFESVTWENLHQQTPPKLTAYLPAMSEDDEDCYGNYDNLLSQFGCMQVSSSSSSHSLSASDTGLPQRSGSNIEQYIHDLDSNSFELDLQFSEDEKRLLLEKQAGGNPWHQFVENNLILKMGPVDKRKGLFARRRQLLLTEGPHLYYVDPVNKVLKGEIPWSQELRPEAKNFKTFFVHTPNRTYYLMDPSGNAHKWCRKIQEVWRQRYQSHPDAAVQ
# T13 sequence (P51817 whole entry): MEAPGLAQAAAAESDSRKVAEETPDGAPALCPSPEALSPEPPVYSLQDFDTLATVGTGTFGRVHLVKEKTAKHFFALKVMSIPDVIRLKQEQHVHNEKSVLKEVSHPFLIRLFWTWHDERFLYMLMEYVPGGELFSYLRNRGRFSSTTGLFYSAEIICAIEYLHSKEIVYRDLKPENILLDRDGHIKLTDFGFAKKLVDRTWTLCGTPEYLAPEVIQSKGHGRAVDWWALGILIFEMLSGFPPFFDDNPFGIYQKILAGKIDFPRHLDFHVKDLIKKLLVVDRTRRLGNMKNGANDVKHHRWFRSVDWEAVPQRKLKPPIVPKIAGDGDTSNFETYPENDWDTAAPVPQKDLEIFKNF
smiles,measurement,setting,value
COc1cc(C(N)=O)nc(-c2cccc(C#C[C@]3(O)CCN(C)C3=O)c2)c1 [NIK SMI1],% Inhibition,LRRK2,82.1%
same,inhibition at 1 µM,LRRK2,> 75%
same,inhibition at 1 µM,GRK6,9%
same,inhibition at 1 µM,CaMKI_delta,15%
same,inhibition at 1 µM,DYRK1A,4.5%
same,inhibition at 1 µM,SGK2,9.5%
same,inhibition at 1 µM,IKK_alpha,3.1%
same,inhibition at 1 µM,CamKIV,14.5%
same,inhibition at 1 µM,PAK3,-3.5%
same,inhibition at 1 µM,PDK1,-0.5%
same,inhibition at 1 µM,Rse,12%
same,inhibition at 1 µM,HIPK2,17.5%
same,inhibition at 1 µM,JAK2,8.5%
same,inhibition at 1 µM,PrKX,11%
same,inhibition at 1 µM,P38_gamma,14%
same,inhibition at 1 µM,SPHK1,21.3%
same,inhibition at 1 µM,p38_alpha,-7.5%
same,inhibition at 1 µM,Blk,-10.5%
same,inhibition at 1 µM,TBK1,26.5%
same,inhibition at 1 µM,eEF-2K,4%
same,inhibition at 1 µM,EGFR,-11.5%
same,inhibition at 1 µM,ErbB2,-1.5%
same,inhibition at 1 µM,MARK3,7.5%
same,inhibition at 1 µM,PKA,-3%
same,inhibition at 1 µM,CSF1R,-11%
same,inhibition at 1 µM,IRAK4,-1.5%
same,inhibition at 1 µM,Fes,20.5%
same,inhibition at 1 µM,CLK3,14.5%
same,inhibition at 1 µM,MRCK_alpha,0.5%
same,inhibition at 1 µM,NEK4,11%
same,inhibition at 1 µM,CK1_gamma2,8.5%
same,inhibition at 1 µM,HIPK4,3%
same,% Inhibition,KHS1,> 75% and 96%

# Reference: publication PMC5766581, “NF-κB inducing kinase is a therapeutic target for systemic lupus erythematosus” (Nature Communications, 2018)
